Earlier results in patent US20070224292A1, “Extended effect ergogenic drink” (priority 2006, published 2007).
Where two headings read alike, the source gives them in different places.

Key:
[1] = immediate-release nicotinic acid
[2] = for time to reach peak serum concentrations: following ingestion
[3] = three women; 1 mg chromium with 100 mg vitamin C versus 1 mg chromium without vitamin C
[4] = animals; given at the same time as vitamin C
[5] = 200 to 400 mcg chromium three times per day, polynicotinate or picolinate form
[6] = in vivo
[7] = visual monitoring test simulating night driving
[8] = after two hours; males (but not females)
[9] = first fifteen minutes of exercise
[10] = during exercise in normal subjects

For `O=C(O)c1cccnc1` [Niacin, Nicotinic acid], the duration of flushing [1] is given as “up to one”, the “time to onset of flushing following ingestion” value [1] is given as no more than 20 min and the “time to reach peak serum concentrations” value ([2]; extended-release form) is given as 4 to 5 h. For the same molecule, the half-life ([2]; immediate release Niacin) was “approximately 1 hour” and the “time to reach peak serum concentrations” value ([2]; immediate-release or crystalline form) was “approximately 45 minutes”.

For `[Cr]` [Chromium], the “plasma levels of chromium” value [3] is given as “higher plasma levels of chromium”, the chromium uptake [4] is given as “enhanced” and the “effect on insulin sensitivity” value [5] is given as “improve insulin sensitivity”.

For Chromium Polynicotinate, the “effect on blood lipid levels” value [6] is given as “lower blood lipid levels”.

In the case of `Cn1c(=O)c2c(ncn2C)n(C)c1=O` [Caffeine], the “effect on attention lapses” value [7] is listed as “prevent attention lapses”, the “time to reach peak levels in the bloodstream” value (absorbed through stomach and small intestine) is listed as 15 to 45 min and the “half-life, women taking oral contraceptives” value (women taking oral contraceptives) is listed as “up to 12 hours”. The “CNS stimulation compared to placebo” value [8] was “lower CNS (Central Nervous System) stimulation”, the “reduction of the loss of glycogen” value [9] was “fifty” and the “circulating free fatty acids and glycerol” value [10] was “increase circulating free fatty acids and glycerol”.
